This note sets out measurements from US12173018B2, “Penicillin-binding protein inhibitors” (priority 2018, dated 2024).

Bounds are passed on as bounds.

What all share (format): cell-based
Experiment [1] concerns P. aeruginosa (ΔmexAB-oprM). Put plainly: microbe, parasite or virus in culture. Conditions: Pseudomonas aeruginosa, read-out: MIC P. aeruginosa ΔmexAB-OprM. Summed up: (§1)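 Following CLSI guidance, growth inhibition is measured in Mueller-Hinton broth with divalent cations. Inoculum 5×10^5 CFU/mL; incubation 16-20 hours, 37° C; endpoint is visual absence of growth.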
The next experiment deals with P. aeruginosa ATCC 35151. Put plainly: microbe, parasite or virus in culture. The settings on record: Pseudomonas aeruginosa, ATCC35151; hyper-permeable P. aeruginosa ATCC 35151; read-out: MIC P. aeruginosa ATCC 35151. The method, boiled down: as §1
The next experiment relates to A. baumannii ATCC 19606. The experiment can be described thus: Broth microdilution MIC, A. baumannii ATCC 19606. Conditions: Acinetobacter baumannii, ATCC19606; A. baumannii ATCC 19606, broth microdilution; read-out: MIC A. baumannii ATCC 19606. The method, boiled down: as §1
(In general: Dilution methods test growth across graded concentrations, often in twofold steps.)

Another experiment has as its system P. aeruginosa PAO1. The experiment can be described thus: Broth microdilution MIC, P. aeruginosa PAO1. The settings on record: Pseudomonas aeruginosa; P. aeruginosa PAO1, broth microdilution; read-out: MIC P. aeruginosa PAO1. Summed up: as §1

For the molecule `CC(=O)NCCN1CCN(C(=O)NC(C(=O)N[C@H]2Cc3cccc(C(=O)O)c3OB2O)c2ccc(O)c(O)c2Cl)C(=O)C1=O` (stereo partly drawn) [Example 228, (3R)-3-(2-(4-(2-acetamidoethyl)-2,3-dioxopiperazine-1-carboxamido)-2-(2-chloro-3,4-dihydroxyphenyl)acetamido)-2-hydroxy-3,4-dihydro-2H-benzo[e][1,2]oxaborinine-8-carboxylic acid], the MIC was less than 0.25 mg/L in experiment [1], less than 0.25 mg/L with P. aeruginosa ATCC 35151, 0.5 to 1 mg/L in the experiment on A. baumannii ATCC 19606 and 0.5 to 1 mg/L in the experiment with P. aeruginosa PAO1.

For `CCN1CCN(C(=O)NC(C(=O)N[C@H]2Cc3ccc(F)c(C(=O)O)c3OB2O)c2ncc(O)cc2Cl)C(=O)C1=O` (stereo partly drawn) [Example 151, (3R)-3-(2-(3-chloro-5-hydroxypyridin-2-yl)-2-(4-ethyl-2,3-dioxopiperazine-1-carboxamido)acetamido)-7-fluoro-2-hydroxy-3,4-dihydro-2H-benzo[e][1,2]oxaborinine-8-carboxylic acid], the MIC was 8 to 16 mg/L in experiment [1], less than 0.25 mg/L in the experiment with P. aeruginosa ATCC 35151, greater than 128 mg/L in the experiment with A. baumannii ATCC 19606 and greater than 128 mg/L in the experiment on P. aeruginosa PAO1.

For the molecule `CS(=O)(=O)NCCN1CCN(C(=O)NC(C(=O)N[C@H]2Cc3cccc(C(=O)O)c3OB2O)c2ccc(O)c(O)c2Cl)C(=O)C1=O` (stereo partly drawn) [Example 229, (3R)-3-(2-(2-chloro-3,4-dihydroxyphenyl)-2-(4-(2-(methylsulfonamido)ethyl)-2,3-dioxopiperazine-1-carboxamido)acetamido)-2-hydroxy-3,4-dihydro-2H-benzo[e][1,2]oxaborinine-8-carboxylic acid], the MIC in experiment [1] was less than 0.25 mg/L; with P. aeruginosa ATCC 35151, less than 0.25 mg/L; in the experiment on A. baumannii ATCC 19606, less than 0.25 mg/L; with P. aeruginosa PAO1, 2 to 4 mg/L.

For the molecule `NCCN1CCN(C(=O)N[C@@H](C(=O)N[C@H]2Cc3cccc(C(=O)O)c3OB2O)c2ncc(O)cc2F)C(=O)C1=O` [Example 225, (R)-3-((R)-2-(4-(2-aminoethyl)-2,3-dioxopiperazine-1-carboxamido)-2-(3-fluoro-5-hydroxypyridin-2-yl)acetamido)-2-hydroxy-3,4-dihydro-2H-benzo[e][1,2]oxaborinine-8-carboxylic acid], the MIC in experiment [1] was 2 to 4 mg/L; in the experiment on P. aeruginosa ATCC 35151 it was 0.5 to 1 mg/L; in the experiment with A. baumannii ATCC 19606, greater than 128 mg/L; in the experiment with P. aeruginosa PAO1, greater than 128 mg/L.

With `CCN1CCN(C(=O)N[C@@H](C(=O)N[C@H]2Cc3cccc(C(=O)O)c3OB2O)c2ncc(O)cc2F)C(=O)C1=O` [Example 177, (R)-3-((R)-2-(4-ethyl-2,3-dioxopiperazine-1-carboxamido)-2-(3-fluoro-5-hydroxypyridin-2-yl)acetamido)-2-hydroxy-3,4-dihydro-2H-benzo[e][1,2]oxaborinine-8-carboxylic acid], the MIC in experiment [1] was 2 to 4 mg/L; in the experiment with P. aeruginosa ATCC 35151 it was 0.5 to 1 mg/L; in the experiment with A. baumannii ATCC 19606 it was greater than 128 mg/L; in the experiment on P. aeruginosa PAO1 it was greater than 128 mg/L.

In the case of `NS(=O)(=O)c1ccc(C(NC(=O)N2CCN(CCF)C(=O)C2=O)C(=O)N[C@H]2Cc3cccc(C(=O)O)c3OB2O)c(F)c1` (stereo partly drawn) [Example 204, (3R)-3-(2-(2-fluoro-4-sulfamoylphenyl)-2-(4-(2-fluoroethyl)-2,3-dioxopiperazine-1-carboxamido)acetamido)-2-hydroxy-3,4-dihydro-2H-benzo[e][1,2]oxaborinine-8-carboxylic acid], the MIC is 8 to 16 mg/L in experiment [1], 0.5 to 1 mg/L in the experiment with P. aeruginosa ATCC 35151, greater than 128 mg/L in the experiment with A. baumannii ATCC 19606 and greater than 128 mg/L with P. aeruginosa PAO1.

With `NCCN1CCN(C(=O)N[C@@H](C(=O)N[C@H]2Cc3ccc(F)c(C(=O)O)c3OB2O)c2ncc(O)cc2F)C(=O)C1=O` [Example 230, (R)-3-((R)-2-(4-(2-aminoethyl)-2,3-dioxopiperazine-1-carboxamido)-2-(3-fluoro-5-hydroxypyridin-2-yl)acetamido)-7-fluoro-2-hydroxy-3,4-dihydro-2H-benzo[e][1,2]oxaborinine-8-carboxylic acid], the MIC in experiment [1] was 2 to 4 mg/L; with P. aeruginosa ATCC 35151 it was less than 0.25 mg/L; in the experiment with A. baumannii ATCC 19606, greater than 128 mg/L; in the experiment on P. aeruginosa PAO1 it was 32 to 64 mg/L.
